Test results published in patent publication US6821976B2, “S-6-hydroxy-buspirone” (Bristol-Myers Squibb Company, priority 2001, dated 2004).

Experiments:
[1] = system: Harlan Sprague-Dawley rat pups; assay: Rat pup isolation-induced ultrasonic vocalization test; format: in vivo; details: for anxiolytic activity (ultrasonic vocalizations emitted by rat pups): dose levels of 0.3 and 1 mg/kg s.c.
Description: Harlan Sprague-Dawley rat pups (male and female) were housed in polycarbonate cages with the dam until 9-11 days old. Thirty minutes before testing, pups were removed from the dam, placed into a new cage with a small amount of home bedding and brought into the lab and placed under a light to maintain body temperature at 37° C. Pups were then weighed, sexed, marked and returned to the litter group until behavioral assessment. Testing took place in a Plexiglas recording chamber that contained a metal plate maintained at (18-20° C.) with a 5×5 cm grid drawn on the plate. A microphone was suspended 10 cm above the plate to record ultrasonic vocalizations. Ultrasonic calls were recorded using the Noldus UltraVox system providing online analysis of the frequency and duration of calls. The number of grid cells entered by the pup was also collected by visual scoring. […] Immediately following the collection of the baseline measures, pups were injected with vehicle or drug subcutaneously at the nape of the neck and returned to its littermates. Thirty minutes later, pups were retested on each of the dependent measures (vocalization and grid cell crossings) to assess drug effects. Unless otherwise specified, each pup was used only once. Baseline differences and percent change from baseline for the frequency of ultrasonic vocalizations and grid cell crossings were analyzed using a one-way ANOVA. Bonferroni/Dunn post hoc comparisons were performed to assess the acute drug effects with vehicle control. Log-probit analysis was used to estimate the dose (milligrams per kilogram) of each agonist predicted to inhibit isolation-induced ultrasonic vocalizations by 50% (ID50). All comparison were made with an experimental type I error rate (α) set at 0.05.
Doses for each drug were administered in an irregular order across several litters. S-6-hydroxy-buspirone and racemic 6-hydroxy-buspirone were dissolved in physiological saline (0.9% NaCl; vehicle). All injections were administered subcutaneously in a volume of 10 ml/kg. Doses of the drug refer to weight of the salt.

[2] = Clinical studies in volunteers orally dosed with buspirone, blood plasma levels; format: in vivo, human; details: compared to buspirone blood plasma levels
human 5-HT1A receptor = molecular target: T1, human 5-HT1A receptor (Homo sapiens, UniProt P08908); assay: 5-HT1A receptor binding assay; details: preclinical studies
T1 construct: expressed in transfected cells; host or cells: HEK293 cells
T1 sequence (P08908 1-422): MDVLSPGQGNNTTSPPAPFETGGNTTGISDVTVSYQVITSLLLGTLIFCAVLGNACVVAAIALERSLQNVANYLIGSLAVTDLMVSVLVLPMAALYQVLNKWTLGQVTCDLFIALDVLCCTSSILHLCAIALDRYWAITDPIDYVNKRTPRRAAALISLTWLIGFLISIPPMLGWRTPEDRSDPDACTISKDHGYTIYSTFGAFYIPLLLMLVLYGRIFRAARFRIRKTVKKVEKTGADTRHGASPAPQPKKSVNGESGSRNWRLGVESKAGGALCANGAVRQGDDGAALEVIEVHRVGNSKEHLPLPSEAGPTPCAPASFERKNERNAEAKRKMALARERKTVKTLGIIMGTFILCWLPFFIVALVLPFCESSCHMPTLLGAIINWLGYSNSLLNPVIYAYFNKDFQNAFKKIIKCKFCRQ
Description: Membranes are prepared for binding using the human 5-HT1A receptor expressed in HEK293 cells. Cells are collected and ruptured using a dounce homogenizer. The cells are spun at 18000×g for 10 minutes and the pellet is resuspended in assay buffer, frozen in liquid nitrogen and kept at −80° C. until the day of the assay.
A total of 30 ug protein is used per well. The assay is carried out in 96-deep-well plates. The assay buffer is 50 mM HEPES containing 2.5 mM MgCl2 and 2 mM EGTA. The membrane preparation is incubated at 25° C. for 60 minutes with 0.1 nM to 1000 nM test compound and 1 nM 3H-8-OH-DPAT. […] serotonin serves as blocking agent to determine non-specific binding. The reaction is terminated by the addition of 1 ml of ice cold 50 mM HEPES buffer and rapid filtration through a Brandel Cell Harvester using Whatman GF/B filters. The filter pads are counted in an LKB Trilux liquid scintillation counter. IC50 values are determined using non-linear regression by Excel-fit.

[3] = Pharmacokinetic studies with 6-hydroxy-buspirone, clearance from the bloodstream; details: in vivo

| clearance from the bloodstream compared with the R-enantiomer [3] | reduced clearance of S- over R- [3] | SMILES | anxiolytic activity (ultrasonic vocalizations emitted by rat pups) [1] | anxiolytic response in the rat pup ultrasonic vocalization test ([1]; functional testing) | animal movement, measured by crossing grid boundary lines ([1]; rat pups, compared to the animals dosed with the single enantiomer) | time course of blood plasma levels [2] | affinity for the human 5-HT1A receptor (human 5-HT1A receptor) |
| --- | --- | --- | --- | --- | --- | --- | --- |
| – | – | O=C1CC2(CCCC2)C(O)C(=O)N1CCCCN1CCN(c2ncccn2)CC1 (racemic) [6-hydroxy-buspirone] | Statistically significant anxiolytic activity | dose-dependent anxiolytic response | appeared to be reduced | sustained | strong affinity |
| cleared more slowly | about three-fold | O=C1CC2(CCCC2)[C@H](O)C(=O)N1CCCCN1CCN(c2ncccn2)CC1 [S-6-hydroxy-buspirone] | Statistically significant anxiolytic activity | – | – | – | – |
| – | – | O=C1CC2(CCCC2)CC(=O)N1CCCCN1CCN(c2ncccn2)CC1 [buspirone] | – | – | – | – | strong affinity |
